Article PMC10507085, “Pharmacological inhibition of TBK1/IKKε blunts immunopathology in a murine model of SARS-CoV-2 infection” (Nature Communications, 2023)

How the values were obtained:
Assay in all cases: biochemical
Set-up in all cases: KINOMEscan competition binding, DNA-tagged kinase against immobilised ligand, qPCR read-out
Details in all cases: read-out: Percent Control
[1] = biological target: ULK2 (Homo sapiens, UniProt Q8IYT8)
Protocol: (§1) The KINOMEscan^TM kinase assays[65] were performed by Eurofins DiscoverX Corporation. For each kinase, the assay relies on the ability of the tested compound to compete against an immobilised ligand for binding to the DNA-tagged kinase. RT-qPCR is then used to measure the quantity of kinase molecules bound to the immobilised ligand, which is decreased if the tested compound competed with the kinase-ligand interaction. An 11-point 3-fold serial dilution of IDX compound was prepared in 100% DMSO at 100× final test concentration and subsequently diluted to 1× in the assay. […]

[2] = biological target: MAP3K1 (Homo sapiens, UniProt Q13233)
Protocol: as §1

[3] = biological target: DCLK1 (Homo sapiens, UniProt O15075)
Protocol: as §1

[4] = biological target: MAPK4 (Homo sapiens, UniProt P31152)
Protocol: as §1

[5] = biological target: FRK (Homo sapiens, UniProt P42685)
Protocol: as §1

[6] = biological target: PHKG2 (Homo sapiens, UniProt P15735)
Protocol: as §1

[7] = biological target: CSK (Homo sapiens, UniProt P41240)
Protocol: as §1

[8] = biological target: MAP3K6 (Homo sapiens, UniProt O95382)
Protocol: as §1

[9] = biological target: CDKL2 (Homo sapiens, UniProt Q92772)
Protocol: as §1

[10] = biological target: CAMK2G (Homo sapiens, UniProt Q13555)
Protocol: as §1

[11] = biological target: PRKACA (Homo sapiens, UniProt P17612)
Protocol: as §1

[12] = biological target: WNK1 (Homo sapiens, UniProt Q9H4A3)
Protocol: as §1

[13] = biological target: TAOK2 (Homo sapiens, UniProt Q9UL54)
Protocol: as §1

[14] = biological target: EPHA8 (Homo sapiens, UniProt P29322)
Protocol: as §1

[15] = biological target: TESK1 (Homo sapiens, UniProt Q15569)
Protocol: as §1

[16] = biological target: EPHB6 (Homo sapiens, UniProt O15197)
Protocol: as §1

[17] = biological target: CDC42BPB (Homo sapiens, UniProt Q9Y5S2)
Protocol: as §1

[18] = biological target: T1, JAK1(JH2domain-pseudokinase) (Homo sapiens, UniProt P23458)
T1 construct: JH2 domain pseudokinase
Protocol: as §1

[19] = biological target: CAMK4 (Homo sapiens, UniProt Q16566)
Protocol: as §1

[20] = biological target: CHEK1 (Homo sapiens, UniProt O14757)
Protocol: as §1

EPHB6, sequence (O15197 whole entry): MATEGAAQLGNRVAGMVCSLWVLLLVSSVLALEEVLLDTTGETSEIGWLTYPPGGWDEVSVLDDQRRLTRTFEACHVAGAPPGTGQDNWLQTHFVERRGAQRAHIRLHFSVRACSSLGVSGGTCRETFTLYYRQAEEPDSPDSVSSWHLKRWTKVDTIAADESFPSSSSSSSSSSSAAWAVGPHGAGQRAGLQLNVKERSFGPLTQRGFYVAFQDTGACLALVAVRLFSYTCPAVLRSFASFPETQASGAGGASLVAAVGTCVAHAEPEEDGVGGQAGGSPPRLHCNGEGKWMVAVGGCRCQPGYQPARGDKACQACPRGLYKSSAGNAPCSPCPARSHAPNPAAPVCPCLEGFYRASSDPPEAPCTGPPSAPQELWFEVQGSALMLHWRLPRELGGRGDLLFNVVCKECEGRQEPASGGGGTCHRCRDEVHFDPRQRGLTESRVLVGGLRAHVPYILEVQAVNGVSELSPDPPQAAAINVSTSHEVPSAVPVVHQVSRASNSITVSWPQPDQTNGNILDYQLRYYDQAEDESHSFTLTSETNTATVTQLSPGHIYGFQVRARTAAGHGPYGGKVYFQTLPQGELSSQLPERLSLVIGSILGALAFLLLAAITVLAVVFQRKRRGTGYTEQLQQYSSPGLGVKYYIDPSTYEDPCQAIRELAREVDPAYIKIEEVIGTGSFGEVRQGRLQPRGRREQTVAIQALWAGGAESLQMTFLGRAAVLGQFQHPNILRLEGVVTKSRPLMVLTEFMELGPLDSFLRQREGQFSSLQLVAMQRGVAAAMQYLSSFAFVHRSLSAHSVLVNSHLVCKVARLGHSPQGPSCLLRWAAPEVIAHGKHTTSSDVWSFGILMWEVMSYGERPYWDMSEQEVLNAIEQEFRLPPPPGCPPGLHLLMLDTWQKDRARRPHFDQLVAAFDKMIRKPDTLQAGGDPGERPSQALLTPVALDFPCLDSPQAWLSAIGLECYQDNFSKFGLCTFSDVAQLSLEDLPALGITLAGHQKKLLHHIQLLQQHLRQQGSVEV
CHEK1, sequence (O14757 whole entry): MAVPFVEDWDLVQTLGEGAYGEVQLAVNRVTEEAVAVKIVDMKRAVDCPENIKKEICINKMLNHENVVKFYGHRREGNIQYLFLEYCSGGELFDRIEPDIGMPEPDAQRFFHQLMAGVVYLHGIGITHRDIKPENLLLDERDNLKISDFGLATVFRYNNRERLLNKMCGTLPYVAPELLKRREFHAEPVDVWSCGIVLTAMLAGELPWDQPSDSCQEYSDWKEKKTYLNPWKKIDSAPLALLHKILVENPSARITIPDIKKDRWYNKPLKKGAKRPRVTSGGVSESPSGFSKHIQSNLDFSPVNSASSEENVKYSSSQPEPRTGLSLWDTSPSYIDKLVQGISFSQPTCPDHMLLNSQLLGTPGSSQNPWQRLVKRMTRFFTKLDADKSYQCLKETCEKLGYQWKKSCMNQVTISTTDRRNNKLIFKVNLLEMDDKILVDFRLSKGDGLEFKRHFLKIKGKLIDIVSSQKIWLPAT
MAP3K1, sequence (Q13233 whole entry): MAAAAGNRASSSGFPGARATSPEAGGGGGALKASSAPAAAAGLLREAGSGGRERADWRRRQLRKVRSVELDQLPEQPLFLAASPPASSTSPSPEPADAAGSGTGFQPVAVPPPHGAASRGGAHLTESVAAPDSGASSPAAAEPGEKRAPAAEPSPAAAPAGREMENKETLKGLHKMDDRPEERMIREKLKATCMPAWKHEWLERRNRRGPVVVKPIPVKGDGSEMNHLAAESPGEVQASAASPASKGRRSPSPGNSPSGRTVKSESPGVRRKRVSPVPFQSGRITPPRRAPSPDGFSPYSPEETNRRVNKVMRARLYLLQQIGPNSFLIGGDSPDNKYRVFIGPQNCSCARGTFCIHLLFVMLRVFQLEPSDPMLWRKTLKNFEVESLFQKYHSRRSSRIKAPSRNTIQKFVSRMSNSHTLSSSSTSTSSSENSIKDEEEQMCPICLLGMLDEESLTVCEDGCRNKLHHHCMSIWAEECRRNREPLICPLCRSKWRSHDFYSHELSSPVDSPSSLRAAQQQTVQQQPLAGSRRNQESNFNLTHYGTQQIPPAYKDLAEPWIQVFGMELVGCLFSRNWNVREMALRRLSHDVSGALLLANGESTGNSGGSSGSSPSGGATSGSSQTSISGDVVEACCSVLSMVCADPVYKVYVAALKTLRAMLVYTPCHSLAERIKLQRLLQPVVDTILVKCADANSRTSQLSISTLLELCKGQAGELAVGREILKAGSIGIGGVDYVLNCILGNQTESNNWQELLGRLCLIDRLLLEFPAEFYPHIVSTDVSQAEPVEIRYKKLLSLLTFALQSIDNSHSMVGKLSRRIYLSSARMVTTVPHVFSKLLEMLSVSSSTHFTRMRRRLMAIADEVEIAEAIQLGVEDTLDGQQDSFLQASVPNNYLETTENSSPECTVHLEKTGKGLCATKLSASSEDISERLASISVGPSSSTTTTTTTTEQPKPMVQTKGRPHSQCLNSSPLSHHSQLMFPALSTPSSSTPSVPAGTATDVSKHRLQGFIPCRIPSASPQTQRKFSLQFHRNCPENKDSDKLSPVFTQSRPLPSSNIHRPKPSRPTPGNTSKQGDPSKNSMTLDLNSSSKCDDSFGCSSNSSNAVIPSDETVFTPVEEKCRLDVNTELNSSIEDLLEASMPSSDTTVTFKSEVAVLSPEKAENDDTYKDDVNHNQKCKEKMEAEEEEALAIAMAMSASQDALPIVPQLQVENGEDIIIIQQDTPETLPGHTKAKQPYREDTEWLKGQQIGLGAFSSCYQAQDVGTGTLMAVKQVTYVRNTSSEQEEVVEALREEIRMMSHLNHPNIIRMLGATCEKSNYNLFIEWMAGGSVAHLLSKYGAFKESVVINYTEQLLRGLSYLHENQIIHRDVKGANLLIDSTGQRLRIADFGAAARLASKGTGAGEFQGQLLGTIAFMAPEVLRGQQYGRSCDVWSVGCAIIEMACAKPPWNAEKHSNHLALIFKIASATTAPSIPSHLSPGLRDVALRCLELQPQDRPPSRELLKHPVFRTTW
TESK1, sequence (Q15569 whole entry): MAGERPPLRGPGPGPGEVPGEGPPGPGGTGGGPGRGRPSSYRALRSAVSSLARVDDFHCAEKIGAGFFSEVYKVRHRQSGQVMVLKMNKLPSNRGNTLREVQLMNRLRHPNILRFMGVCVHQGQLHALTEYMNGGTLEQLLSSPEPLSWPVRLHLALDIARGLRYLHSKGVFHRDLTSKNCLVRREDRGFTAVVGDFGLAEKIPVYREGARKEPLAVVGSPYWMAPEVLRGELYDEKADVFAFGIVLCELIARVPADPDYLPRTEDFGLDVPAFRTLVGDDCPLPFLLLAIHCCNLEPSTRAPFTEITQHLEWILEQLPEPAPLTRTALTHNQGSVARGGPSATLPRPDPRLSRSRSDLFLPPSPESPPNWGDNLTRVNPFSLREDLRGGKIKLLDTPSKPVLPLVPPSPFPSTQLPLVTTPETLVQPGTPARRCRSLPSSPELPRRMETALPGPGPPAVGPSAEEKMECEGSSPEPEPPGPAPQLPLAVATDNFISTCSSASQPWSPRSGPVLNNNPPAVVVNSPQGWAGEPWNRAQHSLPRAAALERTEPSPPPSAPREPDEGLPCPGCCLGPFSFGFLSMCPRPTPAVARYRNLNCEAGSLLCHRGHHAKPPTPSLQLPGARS
T1 sequence (P23458 whole entry, the tested form may be a part): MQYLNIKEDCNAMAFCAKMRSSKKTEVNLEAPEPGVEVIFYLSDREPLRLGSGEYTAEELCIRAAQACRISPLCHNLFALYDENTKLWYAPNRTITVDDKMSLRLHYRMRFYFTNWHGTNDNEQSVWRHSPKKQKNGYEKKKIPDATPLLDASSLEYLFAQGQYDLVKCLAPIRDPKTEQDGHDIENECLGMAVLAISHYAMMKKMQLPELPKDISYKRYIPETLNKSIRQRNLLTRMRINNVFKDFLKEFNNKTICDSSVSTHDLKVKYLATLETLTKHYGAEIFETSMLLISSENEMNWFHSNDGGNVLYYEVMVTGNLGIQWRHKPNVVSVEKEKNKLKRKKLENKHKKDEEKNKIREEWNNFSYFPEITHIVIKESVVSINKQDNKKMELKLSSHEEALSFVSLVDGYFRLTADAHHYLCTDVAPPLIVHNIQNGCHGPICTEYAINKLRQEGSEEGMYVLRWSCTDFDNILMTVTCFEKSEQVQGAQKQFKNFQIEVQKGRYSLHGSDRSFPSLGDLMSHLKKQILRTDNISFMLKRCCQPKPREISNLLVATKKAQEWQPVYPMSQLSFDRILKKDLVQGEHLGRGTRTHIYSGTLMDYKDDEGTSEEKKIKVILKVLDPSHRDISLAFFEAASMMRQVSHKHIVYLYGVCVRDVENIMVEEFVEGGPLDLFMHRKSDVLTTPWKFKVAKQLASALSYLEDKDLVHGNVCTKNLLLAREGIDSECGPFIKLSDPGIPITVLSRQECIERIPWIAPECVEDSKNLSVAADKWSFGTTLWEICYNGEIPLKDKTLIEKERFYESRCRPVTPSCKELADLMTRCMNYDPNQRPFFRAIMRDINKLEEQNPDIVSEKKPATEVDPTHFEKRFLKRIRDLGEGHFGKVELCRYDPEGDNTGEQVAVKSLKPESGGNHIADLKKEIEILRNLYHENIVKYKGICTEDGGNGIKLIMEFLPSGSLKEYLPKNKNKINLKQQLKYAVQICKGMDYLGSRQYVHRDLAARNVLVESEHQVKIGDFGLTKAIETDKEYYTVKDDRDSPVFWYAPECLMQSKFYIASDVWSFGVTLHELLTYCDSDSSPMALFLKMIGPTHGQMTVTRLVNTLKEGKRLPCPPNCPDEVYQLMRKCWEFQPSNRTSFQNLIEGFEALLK

SMILES: Oc1ccc(C2=Cc3ccc(O)cc3OC2)cc1 [compound 1, idronoxil]
- remaining binding at 10 µM [1]: 100%
- remaining binding at 10 µM [2]: 76%
- remaining binding at 10 µM [3]: 100%
- remaining binding at 10 µM [4]: 100%
- remaining binding at 10 µM [5]: 78%
- remaining binding at 10 µM [6]: 46%
- remaining binding at 10 µM [7]: 100%
- remaining binding at 10 µM [8]: 88%
- remaining binding at 10 µM [9]: 100%
- remaining binding at 10 µM [10]: 85%
- remaining binding at 10 µM [11]: 78%
- remaining binding at 10 µM [12]: 83%
- remaining binding at 10 µM [13]: 90%
- remaining binding at 10 µM [14]: 89%
- remaining binding at 10 µM [15]: 86%
- remaining binding at 10 µM [16]: 53%
- remaining binding at 10 µM [17]: 88%
- remaining binding at 10 µM [18]: 90%
- remaining binding at 10 µM [19]: 100%
- remaining binding at 10 µM [20]: 88%
